Laboratory results as given in patent US5760214A, “Bone resorption inhibition/osteogenesis promotion compound” (Iskra Industry Co., Ltd., priority 1993, dated 1998).

Experiments:
[1] = tested on: osteoblast originating from the calvaria of Whister rats; experiment: Osteogenesis Test (1) (Experiment 3), von Kossa dyeing; format: cell-based; conditions: 10^-8 M, addition in calcification period
Experimental: A first generation incubation system of the osteoblast originating from the calvaria of Whister rats (female, 6-months' age) was used as the test cells. After the start of incubation, the sample drug (compound 1-3) was added once a day to the medium in a dose of 10^-6 M, 10^-8 M or 10^-9 M on the second and third days (propagation period). Alternatively, the compound 1-3 in the amount described above was added once a day to the medium for 4 days (calcification period) from the seventh day from the start of incubation. On the fourteenth day from the start of incubation, the cells were subjected to von Kossa dyeing and detection of phosphates was carried out. The area of the bone knots which were dyed to brown was confirmed by the naked eye and was used as the index for osteogenesis.

mice = experiment: Acute Toxicity Test (Experiment 2); format: in vivo, mice (Kunming species); conditions: for No. of dead animals: of 10 animals
Experimental: The compound 1-3 was pale yellow crystalline poweder and its lot number was 930113. The solution was a pale yellow transparent solution, and has a concentration of 50 mg/ml and a pH of about 5. It was offered from Osteoporosis Research Laboratory, Department of Pharmacy, West China University of Medical Science School (WCUMS).
Kunming species mice, health: first class, weight: 18 to 21 g, half male and half female. The mice were offered from Experimental Animal Center of WCUSM.
Four to five dose groups were prepared in equal ratios (1:0.7 to 0.8) within the LD range of 0 to 100% obtained by preliminary tests. The drug for peroral administration was prepared by suspending the solid compound 1-3 in 1% CMCNa2 to form a suspension. For injection, drug solutions having different concentrations were prepared by dissolving the compound 1-3 in physiological saline solution by a low specific gravity dilution method. The animals were starved (but without limiting water), and 20 hours later, ten mice were grouped at random into each group irrespective of their sex and body weight. The drug was dosed once a day in a dose of 0.2 ml/10 g and the animals were inspected. Dead animals were dissected and any change of the morbid state was examined with by the naked eye.
After the chemical was dosed once in the maximum concentration and in the maximum capacity for peroral administration to 20 mice (10 males and 10 females), the animals were examined for 7 days. […] The maximum tolerance dose (MTD) was >6 g/kg.

[2] = Intracorporeal Distribution of Compound (Experiment 1); format: in vivo; conditions: mice, 20 μCi/20 g; for drug concentration in blood: i.v. tail vein, 3H, mean; for drug quantity in tissue: brain / drug quantity in tissue: muscle / drug quantity in tissue: stomach: i.v.
Experimental: The compound 1-3 produced in Synthesis Example 1-3 was subjected to radioactive labelling by ^3 H (0.34 mCi/mg), and was injected into the vein of the tail of mice in a dosage of 20 μCi/20 g. Groups of mice each comprising five mice were killed at 1 minute, 5 minutes, 15 minutes, 30 minutes, 1 hour, 4 hours, 6 hours, 24 hours, 48 hours and 72 hours after the injection, and 50 μl of the blood was collected from the eye socket of each mouse. Further, the heart, the womb, the small intestine, bones (thighbone), etc., were collected from each mouse, and 50 mg of the tissue (50 μl for the blood) was placed into a plastic test tube. Further, 0.2 ml of perchloric acid, 0.4 ml of hydrogen peroxide and a drop of n-octyl alcohol were put into the test tube, and the test tube was left in a water bath at 75° C. for 45 minutes. Next, 0.1 ml of this digestive fluid was sampled and was placed into a bottle storing a scintillating solution and furthermore, 5 ml of 0.5% scintillating solution was mixed. After the solution became transparent, it was placed into an FJ2105 liquid scintillation counter so as to measure radioactivity and to determine cpm of the sample. Separately, dpm of 52 samples obtained from four groups of animals was measured (External Standard Method).
The quantity of the drug inside the tissue was determined in the following way.
Drug quantity in tissue (cpm/mg)=(sample cpm).div.(digested tissue quantity (mg))
Drug quantity in tissue (μg/mg)=(sample cpm/mg×6)[…](count efficiency (E)×2.22×10^7 ×0.34 mCi/mg (specific radioactivity))

[3] = tested on: synthesis of bone proteins; conditions: cell level, U.S. Pat. No. 4,925,833; cited from earlier work
[4] = peroral, maximum concentration, single dose, 7 days

For `CN(C)C1C(=O)C(C(=O)NCN2CCN(CCOc3ccc4c(c3)CCC3C4CCC4(C)C(=O)CCC34)CC2)=C(O)C2(O)C(=O)C3=C(O)c4c(O)cccc4C(C)(O)C3CC12` (stereo not shown) [Compound 1-3, N-4-[17-oxy-estra-1,3,5 (10)-trien-3-oxyethyl]-piperazine-1-methylene-tetracycline], the “Osteogenesis promotion function, calcification period” value [1] was “.uparw. .uparw”, the toxicity (mice) was “its toxicity was extremely low” and the “activity / behaviour after injection” value (mice; after intravenous injection) was “activity of the mice decreased and then the mice started jumping and went into spasm”. The “difference between the sexes of the dead animals” value (mice; after intravenous injection) was “No difference was found between the sexes of the dead animals”, the “eyeball, incontinence” value (mice; after intravenous injection) was “The eyeball protruded and changed to white, and incontinence of urine and feces was observed” and the “time of death of poisoned animals” value (mice; after intravenous injection) was “the major proportion of the poisoned animals died instantly, an extremely few survived were also dead within 24 hours”. For the same molecule, the “change of the morbid state in dissection” value (mice; dead animals, naked eye) was “any change of the morbid state could not at all be observed by the naked eye”, the death ratio (mice; i.v. tail vein, 102.4 mg/kg) was 0% and the “provit unit (Y)” value (mice; i.v. tail vein, 102.4 mg/kg) was 2.60. The “No. of dead animals” value (mice; i.v. tail vein, 102.4 mg/kg) was 0, the death ratio (mice; i.v. tail vein, 128 mg/kg) was 20% and the “provit unit (Y)” value (mice; i.v. tail vein, 128 mg/kg) was 4.16. The “No. of dead animals” value (mice; i.v. tail vein, 128 mg/kg) was 2, the death ratio (mice; i.v. tail vein, 160 mg/kg) was 80% and the “provit unit (Y)” value (mice; i.v. tail vein, 160 mg/kg) was 5.84. For the same molecule, the “No. of dead animals” value (mice; i.v. tail vein, 160 mg/kg) was 8, the death ratio (mice; i.v. tail vein, 200 mg/kg) was 100% and the “provit unit (Y)” value (mice; i.v. tail vein, 200 mg/kg) was 7.40. The “No. of dead animals” value (mice; i.v. tail vein, 200 mg/kg) was 10, the death ratio (mice; i.v. tail vein, 250 mg/kg) was 100% and the “No. of dead animals” value (mice; i.v. tail vein, 250 mg/kg) was 10. The LD50 (mice; i.v. tail vein, Bliss method) was 143.11 mg/kg, the “LD50, range of 95% reliability limit” value (mice; i.v. tail vein, Bliss method) was 132.95 to 154.05 mg/kg and the LD50 (mice; intravenous injection, tail vein) was 143.11 mg/kg. For the same molecule, the “abnormality in the mice” value (mice; [4]) was “no abnormality was found in the mice”, the death of mice (mice; [4]) was “no mouse was dead” and the “drug concentration in blood” value ([2]; 1 min) was 8665 cpm/50 μl. For the same molecule, the “drug concentration in blood” value ([2]; 5 min) was 5238 cpm/50 μl, the “drug concentration in blood” value ([2]; 15 min) was 2638 cpm/50 μl and the “drug concentration in blood” value ([2]; 30 min) was 2347 cpm/50 μl. The “drug concentration in blood” value ([2]; 1 hr) was 952 cpm/50 μl, the “drug concentration in blood” value ([2]; 4 hr) was 659 cpm/50 μl and the “drug concentration in blood” value ([2]; 6 hr) was 715 cpm/50 μl. The “drug concentration in blood” value ([2]; 24 hr) was 523 cpm/50 μl, the “drug concentration in blood” value ([2]; 48 hr) was 272 cpm/50 μl and the “drug concentration in blood” value ([2]; 72 hr) was 190 cpm/50 μl. For the same molecule, the “drug quantity in tissue: brain” value ([2]; 1 min) was 20 cpm/mg tissue, the “drug quantity in tissue: muscle” value ([2]; 1 min) was 28 cpm/mg tissue and the “drug quantity in tissue: stomach” value ([2]; 1 min) was 30 cpm/mg tissue. For the same molecule, the “drug quantity in tissue: brain” value ([2]; 5 min) was 13 cpm/mg tissue, the “drug quantity in tissue: muscle” value ([2]; 5 min) was 32 cpm/mg tissue and the “drug quantity in tissue: stomach” value ([2]; 5 min) was 39 cpm/mg tissue. For the same molecule, the “drug quantity in tissue: brain” value ([2]; 15 min) was 9 cpm/mg tissue, the “drug quantity in tissue: muscle” value ([2]; 15 min) was 15 cpm/mg tissue and the “drug quantity in tissue: stomach” value ([2]; 15 min) was 28 cpm/mg tissue. For the same molecule, the “drug quantity in tissue: brain” value ([2]; 30 min) was 10 cpm/mg tissue, the “drug quantity in tissue: muscle” value ([2]; 30 min) was 22 cpm/mg tissue and the “drug quantity in tissue: stomach” value ([2]; 30 min) was 32 cpm/mg tissue. For the same molecule, the “drug quantity in tissue: brain” value ([2]; 1 hour) was 7 cpm/mg tissue, the “drug quantity in tissue: muscle” value ([2]; 1 hour) was 11 cpm/mg tissue and the “drug quantity in tissue: stomach” value ([2]; 1 hour) was 12 cpm/mg tissue. For the same molecule, the “drug quantity in tissue: brain” value ([2]; 4 hours) was 7 cpm/mg tissue, the “drug quantity in tissue: muscle” value ([2]; 4 hours) was 7 cpm/mg tissue and the “drug quantity in tissue: stomach” value ([2]; 4 hours) was 10 cpm/mg tissue. The “drug quantity in tissue: brain” value ([2]; 6 hours) was 6 cpm/mg tissue, the “drug quantity in tissue: muscle” value ([2]; 6 hours) was 6 cpm/mg tissue and the “drug quantity in tissue: stomach” value ([2]; 6 hours) was 9 cpm/mg tissue. For the same molecule, the “drug quantity in tissue: brain” value ([2]; 24 hours) was 4 cpm/mg tissue, the “drug quantity in tissue: muscle” value ([2]; 24 hours) was 4 cpm/mg tissue and the “drug quantity in tissue: stomach” value ([2]; 24 hours) was 6 cpm/mg tissue. For the same molecule, the “drug quantity in tissue: brain” value ([2]; 48 hours) was 4 cpm/mg tissue, the “drug quantity in tissue: muscle” value ([2]; 48 hours) was 5 cpm/mg tissue and the “drug quantity in tissue: stomach” value ([2]; 48 hours) was 4 cpm/mg tissue. The “drug quantity in tissue: brain” value ([2]; 72 hours) was 3 cpm/mg tissue, the “drug quantity in tissue: muscle” value ([2]; 72 hours) was 4 cpm/mg tissue and the “drug quantity in tissue: stomach” value ([2]; 72 hours) was 3 cpm/mg tissue.

For `CN(C)[C@@H]1C(O)=C(C(N)=O)C(=O)[C@@]2(O)C(O)=C3C(=O)c4c(O)cccc4[C@@](C)(O)[C@H]3C[C@@H]12` [tetracycline], the “synthesis of bone proteins” value [3] is given as “promotes the synthesis of bone proteins”.
